Test results published in patent US9981959B2, “Thiazolyl and oxazolyl urea, thiourea, guanidine and cyanoguanidine compounds as TrkA kinase inhibitors” (Array BioPharma Inc., priority 2012, dated 2018).

Key:
Assay in all cases: KinaseProfiler off-target kinase profiling
Assay type in all cases: biochemical
Settings in all cases: 10 μM, ATP near Km
BTK = target: T1, BTK (Homo sapiens, UniProt Q06187)
T1 construct: purchased Millipore (KinaseProfiler service)
In short: (§1)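 Tested at 10 μM in duplicate; ATP near Km per kinase. Readout: percent of control, mean of 2 replicates.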

BrSK1 = target: T2, BrSK1 (Homo sapiens, UniProt Q8TDC3)
T2 construct: purchased Millipore (KinaseProfiler service)
In short: as §1

BrSK2 = target: T3, BrSK2 (Homo sapiens, UniProt Q8IWQ3)
T3 construct: purchased Millipore (KinaseProfiler service)
In short: as §1

CAMK1d = target: T4, CAMK1d (Homo sapiens, UniProt Q8IU85)
T4 construct: purchased Millipore (KinaseProfiler service)
In short: as §1

CDK9/cyclinT1 = target: T5, CDK9/cyclinT1 (Homo sapiens, UniProt P50750)
T5 construct: purchased Millipore, Inc. (KinaseProfiler service)
In short: as §1

CHK2 = target: T6, CHK2 (Homo sapiens, UniProt O96017)
T6 construct: purchased Millipore, Inc. (KinaseProfiler service)
In short: as §1

CK1gamma1 = target: T7, CK1gamma1 (Homo sapiens, UniProt Q9HCP0)
T7 construct: purchased Millipore, Inc. (KinaseProfiler service)
In short: as §1

CK2alpha2 = target: T8, CK2alpha2 (Homo sapiens, UniProt P19784)
T8 construct: purchased Millipore, Inc. (KinaseProfiler service)
In short: as §1

CLK3 = target: T9, CLK3 (Homo sapiens, UniProt P49761)
T9 construct: purchased Millipore, Inc. (KinaseProfiler service)
In short: as §1

CSK = target: T10, CSK (Homo sapiens, UniProt P41240)
T10 construct: purchased Millipore, Inc. (KinaseProfiler service)
In short: as §1

DCAMKL2 = target: T11, DCAMKL2 (Homo sapiens, UniProt Q8N568)
T11 construct: purchased Millipore, Inc. (KinaseProfiler service)
In short: as §1

DYRK2 = target: T12, DYRK2 (Homo sapiens, UniProt Q92630)
T12 construct: purchased Millipore, Inc. (KinaseProfiler service)
In short: as §1

EGFR = target: T13, EGFR (Homo sapiens, UniProt P00533)
T13 construct: purchased Millipore, Inc. (KinaseProfiler service)
In short: as §1

ERK2 = target: T14, ERK2 (Homo sapiens, UniProt P28482)
T14 construct: purchased Millipore, Inc. (KinaseProfiler service)
In short: as §1

EphA7 = target: T15, EphA7 (Rattus norvegicus, UniProt P54759)
T15 construct: purchased Millipore, Inc. (KinaseProfiler service)
In short: as §1

EphA8 = target: T16, EphA8 (Homo sapiens, UniProt P29322)
T16 construct: purchased Millipore, Inc. (KinaseProfiler service)
In short: as §1

FGFR4 = target: T17, FGFR4 (Homo sapiens, UniProt P22455)
T17 construct: purchased Millipore, Inc. (KinaseProfiler service)
In short: as §1

Fer = target: T18, Fer (Homo sapiens, UniProt P16591)
T18 construct: purchased Millipore, Inc. (KinaseProfiler service)
In short: as §1

IGF-1R = target: T19, IGF-1R (Homo sapiens, UniProt P08069)
T19 construct: purchased Millipore, Inc. (KinaseProfiler service)
In short: as §1

JNK2alpha2 = target: T20, JNK2alpha2 (Homo sapiens, UniProt P45984)
T20 construct: purchased Millipore, Inc. (KinaseProfiler service)
In short: as §1

JNK3 = target: T21, JNK3 (Homo sapiens, UniProt P53779)
T21 construct: purchased Millipore, Inc. (KinaseProfiler service)
In short: as §1

KDR = target: T22, KDR (Homo sapiens, UniProt P35968)
T22 construct: purchased Millipore, Inc. (KinaseProfiler service)
In short: as §1

Lyn = target: T23, Lyn (Homo sapiens, UniProt P07948)
T23 construct: purchased Millipore, Inc. (KinaseProfiler service)
In short: as §1

MAPKAP-K3 = target: T24, MAPKAP-K3 (Homo sapiens, UniProt Q16644)
T24 construct: purchased Millipore, Inc. (KinaseProfiler service)
In short: as §1

MARK2 = target: T25, MARK2 (Homo sapiens, UniProt Q7KZI7)
T25 construct: purchased Millipore, Inc. (KinaseProfiler service)
In short: as §1

MEK1 = target: T26, MEK1 (Homo sapiens, UniProt Q02750)
T26 construct: purchased Millipore, Inc. (KinaseProfiler service)
In short: as §1

MELK = target: T27, MELK (Homo sapiens, UniProt Q14680)
T27 construct: purchased Millipore, Inc. (KinaseProfiler service)
In short: as §1

MKK6 = target: T28, MKK6 (Homo sapiens, UniProt P52564)
T28 construct: purchased Millipore, Inc. (KinaseProfiler service)
In short: as §1

MSK1 = target: T29, MSK1 (Homo sapiens, UniProt O75582)
T29 construct: purchased Millipore, Inc. (KinaseProfiler service)
In short: as §1

MSK2 = target: T30, MSK2 (Homo sapiens, UniProt O75676)
T30 construct: purchased Millipore, Inc. (KinaseProfiler service)
In short: as §1

MYLK = target: T31, MYLK (Homo sapiens, UniProt Q15746)
T31 construct: purchased Millipore, Inc. (KinaseProfiler service)
In short: as §1

Met = target: T32, Met (Homo sapiens, UniProt P08581)
T32 construct: purchased Millipore, Inc. (KinaseProfiler service)
In short: as §1

PKCbetaII = target: T33, PKCbetaII (Homo sapiens, UniProt P05771)
T33 construct: purchased Millipore, Inc. (KinaseProfiler service)
In short: as §1

PKD2 = target: T34, PKD2 (Homo sapiens, UniProt Q9BZL6)
T34 construct: purchased Millipore, Inc. (KinaseProfiler service)
In short: as §1

Ret = target: T35, Ret (Homo sapiens, UniProt P07949)
T35 construct: purchased Millipore, Inc. (KinaseProfiler service)
In short: as §1

Rse = target: T36, Rse (Homo sapiens, UniProt Q06418)
T36 construct: purchased Millipore, Inc. (KinaseProfiler service)
In short: as §1

TSSK1 = target: T37, TSSK1 (Homo sapiens, UniProt Q9BXA7)
T37 construct: purchased Millipore, Inc. (KinaseProfiler service)
In short: as §1

Tie2 = target: T38, Tie2 (Homo sapiens, UniProt Q02763)
T38 construct: purchased Millipore, Inc. (KinaseProfiler service)
In short: as §1

VRK2 = target: T39, VRK2 (Homo sapiens, UniProt Q86Y07)
T39 construct: purchased Millipore, Inc. (KinaseProfiler service)
In short: as §1

WNK3 = target: T40, WNK3 (Homo sapiens, UniProt Q9BYP7)
T40 construct: purchased Millipore, Inc. (KinaseProfiler service)
In short: as §1

eEF-2K = target: T41, eEF-2K (Homo sapiens, UniProt O00418)
T41 construct: purchased Millipore, Inc. (KinaseProfiler service)
In short: as §1

T26 sequence (Q02750 whole entry): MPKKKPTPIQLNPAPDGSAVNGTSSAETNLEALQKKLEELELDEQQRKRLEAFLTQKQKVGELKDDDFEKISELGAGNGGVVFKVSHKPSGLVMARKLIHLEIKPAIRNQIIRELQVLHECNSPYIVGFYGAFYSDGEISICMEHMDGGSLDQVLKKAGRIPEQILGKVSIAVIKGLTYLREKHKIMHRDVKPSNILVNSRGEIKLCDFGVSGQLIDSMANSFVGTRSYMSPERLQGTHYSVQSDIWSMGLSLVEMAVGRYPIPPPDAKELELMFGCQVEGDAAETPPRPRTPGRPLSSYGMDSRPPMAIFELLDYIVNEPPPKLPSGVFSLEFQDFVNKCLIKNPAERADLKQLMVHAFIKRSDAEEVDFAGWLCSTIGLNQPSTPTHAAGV
T9 sequence (P49761 whole entry): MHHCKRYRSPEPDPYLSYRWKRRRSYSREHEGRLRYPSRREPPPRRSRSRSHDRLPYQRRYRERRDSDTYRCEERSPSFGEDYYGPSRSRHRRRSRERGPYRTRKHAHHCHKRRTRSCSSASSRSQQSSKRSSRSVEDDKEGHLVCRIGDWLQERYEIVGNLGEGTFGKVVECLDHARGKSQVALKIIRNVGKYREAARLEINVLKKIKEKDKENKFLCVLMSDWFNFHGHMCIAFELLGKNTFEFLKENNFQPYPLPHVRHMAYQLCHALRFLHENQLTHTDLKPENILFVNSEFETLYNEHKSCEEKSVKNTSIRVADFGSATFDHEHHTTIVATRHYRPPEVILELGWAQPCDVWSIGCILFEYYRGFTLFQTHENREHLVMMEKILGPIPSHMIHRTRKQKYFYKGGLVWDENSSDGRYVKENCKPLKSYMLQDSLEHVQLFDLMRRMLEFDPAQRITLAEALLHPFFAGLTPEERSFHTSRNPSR
T3 sequence (Q8IWQ3 whole entry): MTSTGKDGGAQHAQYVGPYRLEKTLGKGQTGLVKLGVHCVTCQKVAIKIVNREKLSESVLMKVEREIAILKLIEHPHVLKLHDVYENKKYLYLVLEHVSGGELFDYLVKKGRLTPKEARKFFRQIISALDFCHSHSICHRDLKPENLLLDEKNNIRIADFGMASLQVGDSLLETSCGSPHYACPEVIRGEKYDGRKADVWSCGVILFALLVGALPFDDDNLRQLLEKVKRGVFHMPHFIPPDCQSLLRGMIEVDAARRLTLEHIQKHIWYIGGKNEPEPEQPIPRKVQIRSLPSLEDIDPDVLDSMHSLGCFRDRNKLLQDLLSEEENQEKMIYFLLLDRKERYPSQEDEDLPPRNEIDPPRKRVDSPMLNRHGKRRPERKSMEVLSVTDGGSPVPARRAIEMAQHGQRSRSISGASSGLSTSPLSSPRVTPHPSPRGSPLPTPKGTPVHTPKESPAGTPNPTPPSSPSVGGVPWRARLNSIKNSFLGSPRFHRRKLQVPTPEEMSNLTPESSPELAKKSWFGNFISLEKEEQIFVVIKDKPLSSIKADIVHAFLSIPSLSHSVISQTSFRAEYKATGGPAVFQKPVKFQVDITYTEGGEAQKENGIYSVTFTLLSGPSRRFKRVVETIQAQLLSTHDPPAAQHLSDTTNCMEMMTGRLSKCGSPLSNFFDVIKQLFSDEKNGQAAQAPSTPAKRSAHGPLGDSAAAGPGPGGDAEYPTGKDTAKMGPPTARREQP
T18 sequence (P16591 whole entry): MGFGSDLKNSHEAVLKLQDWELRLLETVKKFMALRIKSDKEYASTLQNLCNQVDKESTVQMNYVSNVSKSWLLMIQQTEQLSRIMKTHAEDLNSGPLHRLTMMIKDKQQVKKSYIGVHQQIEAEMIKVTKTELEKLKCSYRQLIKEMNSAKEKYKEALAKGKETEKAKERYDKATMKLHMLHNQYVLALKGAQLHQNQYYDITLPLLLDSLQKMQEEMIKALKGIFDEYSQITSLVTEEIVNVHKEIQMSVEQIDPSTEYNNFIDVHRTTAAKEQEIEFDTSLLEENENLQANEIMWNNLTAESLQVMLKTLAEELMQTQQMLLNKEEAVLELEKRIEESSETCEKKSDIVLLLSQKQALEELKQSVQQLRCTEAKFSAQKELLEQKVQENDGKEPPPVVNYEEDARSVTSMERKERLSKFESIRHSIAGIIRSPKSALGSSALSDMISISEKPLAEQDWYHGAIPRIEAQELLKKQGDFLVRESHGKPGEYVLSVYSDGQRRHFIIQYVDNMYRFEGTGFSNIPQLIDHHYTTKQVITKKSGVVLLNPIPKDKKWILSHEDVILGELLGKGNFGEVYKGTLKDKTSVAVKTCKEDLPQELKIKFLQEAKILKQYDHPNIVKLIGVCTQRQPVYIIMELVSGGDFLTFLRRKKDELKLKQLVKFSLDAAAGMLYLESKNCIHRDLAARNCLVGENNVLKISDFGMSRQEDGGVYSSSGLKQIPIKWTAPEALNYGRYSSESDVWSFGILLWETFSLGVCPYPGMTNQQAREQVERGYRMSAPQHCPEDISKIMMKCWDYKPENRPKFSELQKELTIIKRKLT
T36 sequence (Q06418 41-890): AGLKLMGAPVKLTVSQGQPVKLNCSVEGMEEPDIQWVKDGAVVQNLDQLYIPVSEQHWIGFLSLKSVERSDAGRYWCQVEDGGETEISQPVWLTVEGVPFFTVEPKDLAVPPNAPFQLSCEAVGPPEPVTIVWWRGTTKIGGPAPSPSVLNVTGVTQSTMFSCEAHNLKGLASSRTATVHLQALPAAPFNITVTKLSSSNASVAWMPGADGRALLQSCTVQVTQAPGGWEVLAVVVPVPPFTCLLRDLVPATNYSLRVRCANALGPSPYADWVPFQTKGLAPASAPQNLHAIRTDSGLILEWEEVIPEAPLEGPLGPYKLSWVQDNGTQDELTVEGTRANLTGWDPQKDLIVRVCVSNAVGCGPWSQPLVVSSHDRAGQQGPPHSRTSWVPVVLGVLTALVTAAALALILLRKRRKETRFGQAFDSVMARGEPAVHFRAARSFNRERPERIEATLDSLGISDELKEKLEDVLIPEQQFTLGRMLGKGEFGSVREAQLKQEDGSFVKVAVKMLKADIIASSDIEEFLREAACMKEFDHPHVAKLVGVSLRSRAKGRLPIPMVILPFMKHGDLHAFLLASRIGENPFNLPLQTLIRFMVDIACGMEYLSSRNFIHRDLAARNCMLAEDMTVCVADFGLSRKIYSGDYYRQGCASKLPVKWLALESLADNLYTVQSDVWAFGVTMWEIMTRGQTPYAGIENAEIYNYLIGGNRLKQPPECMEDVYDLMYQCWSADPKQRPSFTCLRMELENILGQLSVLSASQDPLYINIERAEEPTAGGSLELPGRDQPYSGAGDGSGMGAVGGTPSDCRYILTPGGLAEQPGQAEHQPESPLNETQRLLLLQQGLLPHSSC
T27 sequence (Q14680 whole entry): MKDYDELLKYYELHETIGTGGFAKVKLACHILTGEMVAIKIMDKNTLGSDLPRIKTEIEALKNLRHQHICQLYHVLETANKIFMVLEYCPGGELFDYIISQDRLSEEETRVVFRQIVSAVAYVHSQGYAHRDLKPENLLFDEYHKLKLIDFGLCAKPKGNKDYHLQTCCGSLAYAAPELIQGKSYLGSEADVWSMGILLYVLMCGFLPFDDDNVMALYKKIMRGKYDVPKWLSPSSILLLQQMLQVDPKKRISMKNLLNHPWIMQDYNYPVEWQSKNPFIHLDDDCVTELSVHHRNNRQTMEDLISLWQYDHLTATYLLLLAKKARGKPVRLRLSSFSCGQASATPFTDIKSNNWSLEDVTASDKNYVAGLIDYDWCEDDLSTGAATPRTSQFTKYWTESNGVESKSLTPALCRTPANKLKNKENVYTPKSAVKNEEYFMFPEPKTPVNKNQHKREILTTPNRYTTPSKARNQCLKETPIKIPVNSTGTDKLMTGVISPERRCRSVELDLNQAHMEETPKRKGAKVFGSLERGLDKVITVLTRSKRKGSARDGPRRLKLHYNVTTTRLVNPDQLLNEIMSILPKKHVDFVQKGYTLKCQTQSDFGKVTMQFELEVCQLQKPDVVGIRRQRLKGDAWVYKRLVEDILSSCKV
T2 sequence (Q8TDC3 whole entry): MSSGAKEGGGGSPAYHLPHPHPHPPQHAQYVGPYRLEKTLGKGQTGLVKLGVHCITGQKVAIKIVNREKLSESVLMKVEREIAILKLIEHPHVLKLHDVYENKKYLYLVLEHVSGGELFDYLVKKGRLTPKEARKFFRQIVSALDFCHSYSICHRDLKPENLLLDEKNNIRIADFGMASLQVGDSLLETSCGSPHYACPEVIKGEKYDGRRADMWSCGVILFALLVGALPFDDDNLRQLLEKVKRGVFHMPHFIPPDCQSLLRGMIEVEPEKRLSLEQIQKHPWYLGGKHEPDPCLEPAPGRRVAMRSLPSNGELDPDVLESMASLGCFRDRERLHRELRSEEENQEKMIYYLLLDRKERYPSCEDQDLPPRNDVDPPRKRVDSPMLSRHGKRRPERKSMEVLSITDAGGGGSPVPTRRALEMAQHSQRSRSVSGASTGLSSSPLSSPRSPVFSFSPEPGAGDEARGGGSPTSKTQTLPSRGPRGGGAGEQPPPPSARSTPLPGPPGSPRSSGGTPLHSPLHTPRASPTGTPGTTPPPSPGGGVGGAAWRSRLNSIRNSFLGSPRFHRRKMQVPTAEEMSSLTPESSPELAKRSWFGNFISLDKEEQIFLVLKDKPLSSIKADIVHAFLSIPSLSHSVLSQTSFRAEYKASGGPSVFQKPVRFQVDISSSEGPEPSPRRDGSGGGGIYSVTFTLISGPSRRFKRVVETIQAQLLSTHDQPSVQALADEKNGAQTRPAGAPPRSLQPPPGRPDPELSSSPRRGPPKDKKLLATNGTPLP

Cc1c(-c2cnn(C)c2)nn(-c2ccccc2)c1NC(=O)Nc1sc(C(F)(F)F)nc1-c1ccccc1 [Example 2, 1-(1′,4-dimethyl-1-phenyl-1H,1′H-[3,4′-bipyrazol]-5-yl)-3-(4-phenyl-2-(trifluoromethyl)thiazol-5-yl)urea]
Avg POC (BTK): 123 POC
Avg POC (BrSK1): 132.5 POC
Avg POC (BrSK2): 116.5 POC
Avg POC (CAMK1d): 132.5 POC
Avg POC (CDK9/cyclinT1): 108 POC
Avg POC (CHK2): 133 POC
Avg POC (CK1gamma1): 104 POC
Avg POC (CK2alpha2): 104 POC
Avg POC (CLK3): 110.5 POC
Avg POC (CSK): 136 POC
Avg POC (DCAMKL2): 210.5 POC
Avg POC (DYRK2): 88 POC
Avg POC (EGFR): 111 POC
Avg POC (ERK2): 135 POC
Avg POC (EphA7): 103 POC
Avg POC (EphA8): 118.5 POC
Avg POC (FGFR4): 141.5 POC
Avg POC (Fer): 78.5 POC
Avg POC (IGF-1R): 82.5 POC
Avg POC (JNK2alpha2): 97.5 POC
Avg POC (JNK3): 120 POC
Avg POC (KDR): 126 POC
Avg POC (Lyn): 103.5 POC
Avg POC (MAPKAP-K3): 116 POC
Avg POC (MARK2): 100.5 POC
Avg POC (MEK1): 103.5 POC
Avg POC (MELK): 99 POC
Avg POC (MKK6): 134 POC
Avg POC (MSK1): 151 POC
Avg POC (MSK2): 136 POC
Avg POC (MYLK): 99 POC
Avg POC (Met): 120 POC
Avg POC (PKCbetaII): 95 POC
Avg POC (PKD2): 110.5 POC
Avg POC (Ret): 91.5 POC
Avg POC (Rse): 108 POC
Avg POC (TSSK1): 92 POC
Avg POC (Tie2): 131.5 POC
Avg POC (VRK2): 91.5 POC
Avg POC (WNK3): 112.5 POC
Avg POC (eEF-2K): 151.5 POC
